In ChEMBL document CHEMBL1773033, “Cyclic lactam hybrid α-MSH/Agouti-related protein (AGRP) analogues with nanomolar range binding affinities at the human melanocortin receptors” (Bioorg Med Chem Lett, 2011):
Positions of bridges follow the written chain, without caps; N, C: chain ends. Non-standard residues stand in square brackets, D forms with d. Residues, ends and D or L forms follow the SMILES beside them. 2Nal = N[C@@H](Cc1ccc2ccccc2c1)C(=O)O

How the values were obtained:
Melanocortin receptor 3 [1] = target: T1, Melanocortin receptor 3 (Homo sapiens, UniProt P41968); test: Displacement of [125I]-NDP-alpha-MSH from human MC3R expressed in HEK293 cells at 10 uM after 40 mins by Wallac 1470 gamma counting relative to Ac-Nle-c[Asp-His-D-Phe-Arg-Trp-Lys]-NH2; format: cell-based
[2] = target: T2, Melanocyte-stimulating hormone receptor (Homo sapiens, UniProt Q01726); test: Agonist activity at human MC1R expressed in HEK293 cells assessed as increase in intracellular cAMP accumulation; format: functional, cell-based
Target sequence in this assay (Q01726 whole entry): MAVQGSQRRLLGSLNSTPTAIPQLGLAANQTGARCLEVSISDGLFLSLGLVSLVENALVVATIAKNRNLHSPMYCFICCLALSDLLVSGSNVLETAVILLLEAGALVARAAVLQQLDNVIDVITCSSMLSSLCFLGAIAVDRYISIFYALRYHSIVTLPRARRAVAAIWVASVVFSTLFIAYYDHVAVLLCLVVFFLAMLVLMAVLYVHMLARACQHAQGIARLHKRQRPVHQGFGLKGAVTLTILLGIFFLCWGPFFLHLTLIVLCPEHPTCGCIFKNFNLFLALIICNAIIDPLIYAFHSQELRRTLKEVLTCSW

Melanocortin receptor 3 [3] = target: T1, Melanocortin receptor 3; test: Agonist activity at human MC3R expressed in HEK293 cells assessed as intracellular cAMP accumulation; format: functional, cell-based
Melanocortin receptor 4 [4] = target: T3, Melanocortin receptor 4 (Homo sapiens, UniProt P32245); test: Agonist activity at human MC4R expressed in HEK293 cells assessed as intracellular cAMP accumulation; format: functional, cell-based
Melanocortin receptor 5 [5] = target: T4, Melanocortin receptor 5 (Homo sapiens, UniProt P33032); test: Agonist activity at human MC5R expressed in HEK293 cells assessed as intracellular cAMP accumulation; format: functional, cell-based
Melanocortin receptor 4 [6] = target: T3, Melanocortin receptor 4; test: Agonist activity at human MC4R expressed in HEK293 cells assessed as increase in intracellular cAMP level at 10 uM after 3 mins by luminescence counter relative to Ac-Nle-c[Asp-His-D-Phe-Arg-Trp-Lys]-NH2; format: functional, cell-based
Melanocortin receptor 4 [7] = target: T3, Melanocortin receptor 4; test: Displacement of [125I]-NDP-alpha-MSH from human MC4R expressed in HEK293 cells after 40 mins by Wallac 1470 gamma counting; format: cell-based
[8] = target: T2, Melanocyte-stimulating hormone receptor; test: Displacement of [125I]-NDP-alpha-MSH from human MC1R expressed in HEK293 cells at 10 uM after 40 mins by Wallac 1470 gamma counting relative to Ac-Nle-c[Asp-His-D-Phe-Arg-Trp-Lys]-NH2; format: cell-based
Target sequence in this assay (Q01726 whole entry, looked up): as the sequence (Q01726 whole entry) above

Melanocortin receptor 4 [9] = target: T3, Melanocortin receptor 4; test: Displacement of [125I]-NDP-alpha-MSH from human MC4R expressed in HEK293 cells at 10 uM after 40 mins by Wallac 1470 gamma counting relative to Ac-Nle-c[Asp-His-D-Phe-Arg-Trp-Lys]-NH2; format: cell-based
Melanocortin receptor 5 [10] = target: T4, Melanocortin receptor 5; test: Displacement of [125I]-NDP-alpha-MSH from human MC5R expressed in HEK293 cells at 10 uM after 40 mins by Wallac 1470 gamma counting relative to Ac-Nle-c[Asp-His-D-Phe-Arg-Trp-Lys]-NH2; format: cell-based
[11] = target: T2, Melanocyte-stimulating hormone receptor; test: Agonist activity at human MC1R expressed in HEK293 cells assessed as increase in intracellular cAMP level at 10 uM after 3 mins by luminescence counter relative to Ac-Nle-c[Asp-His-D-Phe-Arg-Trp-Lys]-NH2; format: functional, cell-based
Target sequence in this assay (Q01726 whole entry, looked up): as the sequence (Q01726 whole entry) above

Melanocortin receptor 3 [12] = target: T1, Melanocortin receptor 3; test: Agonist activity at human MC3R expressed in HEK293 cells assessed as increase in intracellular cAMP level at 10 uM after 3 mins by luminescence counter relative to Ac-Nle-c[Asp-His-D-Phe-Arg-Trp-Lys]-NH2; format: functional, cell-based
Melanocortin receptor 5 [13] = target: T4, Melanocortin receptor 5; test: Agonist activity at human MC5R expressed in HEK293 cells assessed as increase in intracellular cAMP level at 10 uM after 3 mins by luminescence counter relative to Ac-Nle-c[Asp-His-D-Phe-Arg-Trp-Lys]-NH2; format: functional, cell-based
[14] = target: T2, Melanocyte-stimulating hormone receptor; test: Displacement of [125I]-NDP-alpha-MSH from human MC1R expressed in HEK293 cells after 40 mins by Wallac 1470 gamma counting; format: cell-based
Target sequence in this assay (Q01726 whole entry): as above

Melanocortin receptor 3 [15] = target: T1, Melanocortin receptor 3; test: Displacement of [125I]-NDP-alpha-MSH from human MC3R expressed in HEK293 cells after 40 mins by Wallac 1470 gamma counting; format: cell-based
Melanocortin receptor 5 [16] = target: T4, Melanocortin receptor 5; test: Displacement of [125I]-NDP-alpha-MSH from human MC5R expressed in HEK293 cells after 40 mins by Wallac 1470 gamma counting; format: cell-based

T3 sequence (P32245 whole entry): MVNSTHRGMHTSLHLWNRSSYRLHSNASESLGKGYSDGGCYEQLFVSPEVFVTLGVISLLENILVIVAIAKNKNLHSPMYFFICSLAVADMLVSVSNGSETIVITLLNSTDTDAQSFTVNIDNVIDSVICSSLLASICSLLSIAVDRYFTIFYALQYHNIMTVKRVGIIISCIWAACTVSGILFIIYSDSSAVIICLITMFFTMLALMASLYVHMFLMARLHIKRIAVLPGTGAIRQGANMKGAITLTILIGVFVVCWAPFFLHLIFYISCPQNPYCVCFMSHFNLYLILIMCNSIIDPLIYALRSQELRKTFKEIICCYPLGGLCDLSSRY
T1 sequence (P41968 whole entry): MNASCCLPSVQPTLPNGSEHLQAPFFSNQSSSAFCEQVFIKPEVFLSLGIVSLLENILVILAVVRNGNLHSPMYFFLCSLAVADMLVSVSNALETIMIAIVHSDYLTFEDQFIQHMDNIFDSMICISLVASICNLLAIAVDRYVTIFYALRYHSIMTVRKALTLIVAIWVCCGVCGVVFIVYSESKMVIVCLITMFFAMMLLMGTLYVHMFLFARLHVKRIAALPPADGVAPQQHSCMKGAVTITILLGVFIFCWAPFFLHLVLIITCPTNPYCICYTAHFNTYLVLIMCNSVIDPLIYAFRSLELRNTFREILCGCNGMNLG
T4 sequence (P33032 whole entry): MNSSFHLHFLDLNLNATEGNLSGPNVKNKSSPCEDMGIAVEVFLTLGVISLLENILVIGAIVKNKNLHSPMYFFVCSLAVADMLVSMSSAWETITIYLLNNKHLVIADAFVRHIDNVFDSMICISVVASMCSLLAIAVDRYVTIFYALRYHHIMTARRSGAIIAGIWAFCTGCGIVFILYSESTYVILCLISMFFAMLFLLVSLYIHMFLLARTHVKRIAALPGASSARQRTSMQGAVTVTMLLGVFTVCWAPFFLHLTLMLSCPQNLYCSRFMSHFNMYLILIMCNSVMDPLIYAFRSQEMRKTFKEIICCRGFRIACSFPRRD

| SMILES | Activity (Melanocortin receptor 3 [1]) | EC50 [2] | EC50 (Melanocortin receptor 3 [3]) | EC50 (Melanocortin receptor 4 [4]) | EC50 (Melanocortin receptor 5 [5]) | Activity (Melanocortin receptor 4 [6]) | IC50 (Melanocortin receptor 4 [7]) | Activity [8] | Activity (Melanocortin receptor 4 [9]) | Activity (Melanocortin receptor 5 [10]) | Activity [11] | Activity (Melanocortin receptor 3 [12]) | Activity (Melanocortin receptor 5 [13]) | IC50 [14] | IC50 (Melanocortin receptor 3 [15]) | IC50 (Melanocortin receptor 5 [16]) |
| --- | --- | --- | --- | --- | --- | --- | --- | --- | --- | --- | --- | --- | --- | --- | --- | --- |
| C[C@@H]1NC(=O)[C@@H](CCCNC(=N)N)NC(=O)[C@H](Cc2ccccc2)NC(=O)[C@H](Cc2c[nH]c3ccccc23)NC(=O)[C@H](CCCNC(=N)N)NC(=O)CC[C@@H](C(N)=O)NC(=O)[C@H](Cc2ccccc2)NC1=O | 30% | Not Active | Not Active | Not Active | Not Active | 0% | Not Active | – | – | – | – | – | – | – | – | – |
| C[C@@H]1NC(=O)[C@H](CCCNC(=N)N)NC(=O)[C@@H](Cc2ccccc2)NC(=O)[C@H](Cc2c[nH]c3ccccc23)NC(=O)[C@H](CCCNC(=N)N)NC(=O)CC[C@@H](C(N)=O)NC(=O)[C@H](Cc2ccccc2)NC1=O | – | – | Not Active | Not Active | Not Active | – | – | – | – | – | – | – | – | – | – | – |
| CC(=O)N[C@H]1CC(=O)NCCCC[C@@H](C(N)=O)NC(=O)[C@@H](CC(N)=O)NC(=O)[C@H](Cc2ccccc2)NC(=O)[C@H](Cc2c[nH]c3ccccc23)NC(=O)[C@H](CCCNC(=N)N)NC1=O (Ac-DRWF[dN]K-NH2; lactam 1-6) | 0% | Not Active | Not Active | Not Active | Not Active | 0% | Not Active | 0% | 0% | 0% | 0% | 0% | 0% | Not Active | Not Active | Not Active |
| CC(=O)N[C@H]1CC(=O)NCCCC[C@@H](C(N)=O)NC(=O)[C@@H](CC(N)=O)NC(=O)[C@H](Cc2ccc3ccccc3c2)NC(=O)[C@H](Cc2c[nH]c3ccccc23)NC(=O)[C@H](CCCNC(=N)N)NC1=O (Ac-DRW[2Nal][dN]K-NH2; lactam 1-6) | 0% | Not Active | Not Active | Not Active | Not Active | 0% | Not Active | – | – | – | 0% | – | 0% | Not Active | Not Active | Not Active |
| CC(=O)N[C@H]1CC(=O)NCCCC[C@@H](C(N)=O)NC(=O)[C@@H](CCC(N)=O)NC(=O)[C@H](Cc2ccc3ccccc3c2)NC(=O)[C@H](Cc2c[nH]c3ccccc23)NC(=O)[C@H](CCCNC(=N)N)NC1=O (Ac-DRW[2Nal][dQ]K-NH2; lactam 1-6) | 0% | Not Active | Not Active | Not Active | Not Active | 0% | Not Active | – | – | – | 0% | – | 0% | Not Active | Not Active | Not Active |
| C[C@@H]1NC(=O)[C@@H](CCC(N)=O)NC(=O)[C@H](Cc2ccccc2)NC(=O)[C@H](Cc2c[nH]c3ccccc23)NC(=O)[C@H](CCCNC(=N)N)NC(=O)CC[C@@H](C(N)=O)NC(=O)[C@H](Cc2ccccc2)NC1=O (RWF[dQ]AFE-NH2; lactam N-7) | 0% | Not Active | Not Active | Not Active | Not Active | – | Not Active | – | 0% | – | 0% | – | 0% | Not Active | Not Active | Not Active |
| C[C@@H]1NC(=O)[C@@H](CC(N)=O)NC(=O)[C@H](Cc2ccc3ccccc3c2)NC(=O)[C@H](Cc2c[nH]c3ccccc23)NC(=O)[C@H](CCCNC(=N)N)NC(=O)CC[C@@H](C(N)=O)NC(=O)[C@H](Cc2ccccc2)NC1=O (RW[2Nal][dN]AFE-NH2; lactam N-7) | 0% | Not Active | Not Active | Not Active | Not Active | 0% | Not Active | – | – | 0% | 0% | – | – | Not Active | Not Active | Not Active |
| C[C@@H]1NC(=O)[C@@H](CCC(N)=O)NC(=O)[C@H](Cc2ccc3ccccc3c2)NC(=O)[C@H](Cc2c[nH]c3ccccc23)NC(=O)[C@H](CCCNC(=N)N)NC(=O)CC[C@@H](C(N)=O)NC(=O)[C@H](Cc2ccccc2)NC1=O (RW[2Nal][dQ]AFE-NH2; lactam N-7) | – | Not Active | Not Active | Not Active | Not Active | 0% | Not Active | 0% | – | – | – | 0% | 0% | Not Active | Not Active | Not Active |

Next, values leading:

| Activity (Melanocortin receptor 3 [1]) | EC50 [2] | EC50 (Melanocortin receptor 3 [3]) | EC50 (Melanocortin receptor 4 [4]) | EC50 (Melanocortin receptor 5 [5]) | Activity (Melanocortin receptor 4 [6]) | IC50 (Melanocortin receptor 4 [7]) | Activity [8] | Activity (Melanocortin receptor 4 [9]) | Activity (Melanocortin receptor 5 [10]) | Activity [11] | Activity (Melanocortin receptor 3 [12]) | Activity (Melanocortin receptor 5 [13]) | IC50 [14] | IC50 (Melanocortin receptor 3 [15]) | IC50 (Melanocortin receptor 5 [16]) | SMILES |
| --- | --- | --- | --- | --- | --- | --- | --- | --- | --- | --- | --- | --- | --- | --- | --- | --- |
| – | Not Active | Not Active | Not Active | Not Active | 0% | Not Active | 0% | – | – | – | 0% | 0% | Not Active | Not Active | Not Active | C[C@@H]1NC(=O)[C@H](CC(N)=O)NC(=O)[C@H](Cc2ccccc2)NC(=O)[C@H](Cc2c[nH]c3ccccc23)NC(=O)[C@H](CCCNC(=N)N)NC(=O)CC[C@@H](C(N)=O)NC(=O)[C@H](Cc2ccccc2)NC1=O (RWFNAFE-NH2; lactam N-7) |
| – | Not Active | Not Active | Not Active | Not Active | 0% | Not Active | – | – | – | – | 0% | 0% | – | Not Active | Not Active | C[C@@H]1NC(=O)[C@@H](Cc2cnc[nH]2)NC(=O)[C@H](Cc2ccccc2)NC(=O)[C@H](Cc2c[nH]c3ccccc23)NC(=O)[C@H](CCCNC(=N)N)NC(=O)CC[C@@H](C(N)=O)NC(=O)[C@H](Cc2ccccc2)NC1=O (RWF[dH]AFE-NH2; lactam N-7) |
| 0% | Not Active | Not Active | Not Active | Not Active | 0% | Not Active | 0% | – | – | – | – | 0% | Not Active | Not Active | Not Active | C[C@@H]1NC(=O)[C@@H](CC(N)=O)NC(=O)[C@H](Cc2ccccc2)NC(=O)[C@H](Cc2c[nH]c3ccccc23)NC(=O)[C@H](CCCNC(=N)N)NC(=O)CC[C@@H](C(N)=O)NC(=O)[C@H](Cc2ccccc2)NC1=O (RWF[dN]AFE-NH2; lactam N-7) |
| – | Not Active | Not Active | Not Active | Not Active | – | Not Active | – | 0% | – | 0% | 0% | 0% | Not Active | Not Active | Not Active | C[C@@H]1NC(=O)[C@H](Cc2cnc[nH]2)NC(=O)[C@@H](Cc2ccccc2)NC(=O)[C@H](Cc2c[nH]c3ccccc23)NC(=O)[C@H](CCCNC(=N)N)NC(=O)CC[C@@H](C(N)=O)NC(=O)[C@H](Cc2ccccc2)NC1=O (RW[dF]HAFE-NH2; lactam N-7) |
| – | Not Active | Not Active | Not Active | Not Active | 0% | Not Active | 0% | – | – | – | 0% | 0% | Not Active | Not Active | Not Active | C[C@@H]1NC(=O)[C@H](CC(N)=O)NC(=O)[C@@H](Cc2ccccc2)NC(=O)[C@H](Cc2c[nH]c3ccccc23)NC(=O)[C@H](CCCNC(=N)N)NC(=O)CC[C@@H](C(N)=O)NC(=O)[C@H](Cc2ccccc2)NC1=O (RW[dF]NAFE-NH2; lactam N-7) |
